Measured values: publication PMC10733463, “Berberine-microbiota interplay: orchestrating gut health through modulation of the gut microbiota and metabolic transformation into bioactive metabolites” (Frontiers in Pharmacology, 2023)

Tested on: caecal microbiota cultures
Assay: 16S sequencing of total (DNA) and active (cDNA) community in caecal microbiota cultures, BBR vs Control
Type: cell-based, broiler chicken
Conditions: 48 h; for L2FC BBRRNA vs ControlRNA: active (cDNA) community; for L2FC BBRRNA vs BBRDNA: active vs total community in BBR group; for L2FC BBRDNA vs ControlDNA: total (DNA) community
[1] = OTU 563086 ([Ruminococcus] torques group)
[2] = OTU 574038 (uncultured Lachnospiraceae)
[3] = OTU 579244 (Ruminiclostridium 9)
[4] = OTU 592616 (Erysipelatoclostridium)
[5] = OTU 647215 (uncultured Ruminococcaceae)
[6] = OTU 843454 (Family_Lachnospiraceae)
[7] = OTU 1094991 (Ruminococcaceae UCG-005)
[8] = OTU 2265722 (uncultured Lachnospiraceae)
[9] = OTU 4404181 (uncultured Ruminococcaceae)
[10] = OTU New.CleanUp.ReferenceOTU4902 (Erysipelatoclostridium)
[11] = OTU New.ReferenceOTU85 (Anaerofilum)
[12] = OTU New.ReferenceOTU111 (Lachnospiraceae UCG-010)
[13] = OTU New.ReferenceOTU118 (Erysipelatoclostridium)
[14] = OTU New.ReferenceOTU144 (Erysipelatoclostridium)
[15] = OTU New.ReferenceOTU364 (Streptococcus)
[16] = OTU New.ReferenceOTU377 (uncultured Ruminococcaceae)
[17] = OTU New.ReferenceOTU392 (Intestinimonas)
[18] = OTU New.ReferenceOTU395 (Ruminiclostridium 9)
[19] = OTU New.ReferenceOTU429 (Erysipelatoclostridium)
[20] = OTU New.ReferenceOTU462 (Erysipelatoclostridium)
[21] = OTU New.ReferenceOTU476 (Escherichia-Shigella)
[22] = OTU New.ReferenceOTU486 (Streptococcus)
[23] = OTU New.ReferenceOTU551 (uncultured Ruminococcaceae)

## COc1ccc2cc3[n+](cc2c1OC)CCc1cc2c(cc1-3)OCO2 [Berberine, Berberine chloride]
[1]
  L2FC BBRRNA vs ControlRNA: -0.24
  L2FC BBRRNA vs BBRDNA: -1.93
  L2FC BBRDNA vs ControlDNA: -0.39
OTU 564334 (Oscillibacter)
  L2FC BBRRNA vs ControlRNA: -0.38
  L2FC BBRRNA vs BBRDNA: 2.35
  L2FC BBRDNA vs ControlDNA: -0.21
[2]
  L2FC BBRRNA vs ControlRNA: -1.65
  L2FC BBRRNA vs BBRDNA: -0.24
  L2FC BBRDNA vs ControlDNA: -2.16
[3]
  L2FC BBRRNA vs ControlRNA: -1.11
  L2FC BBRRNA vs BBRDNA: 2.49
  L2FC BBRDNA vs ControlDNA: -1.32
OTU 585227 (Oscillibacter)
  L2FC BBRRNA vs ControlRNA: 0.12
  L2FC BBRRNA vs BBRDNA: 2.44
  L2FC BBRDNA vs ControlDNA: 0.21
[4]
  L2FC BBRRNA vs ControlRNA: 0.37
  L2FC BBRRNA vs BBRDNA: 1.49
  L2FC BBRDNA vs ControlDNA: 0.67
[5]
  L2FC BBRRNA vs ControlRNA: 0.58
  L2FC BBRRNA vs BBRDNA: 2.24
  L2FC BBRDNA vs ControlDNA: 0.49
OTU 813944 (Lactobacillus)
  L2FC BBRRNA vs ControlRNA: 1.85
  L2FC BBRRNA vs BBRDNA: 1.33
  L2FC BBRDNA vs ControlDNA: 1.53
OTU 842786 (Intestinimonas)
  L2FC BBRRNA vs ControlRNA: -0.59
  L2FC BBRRNA vs BBRDNA: 2.24
  L2FC BBRDNA vs ControlDNA: -0.09
[6]
  L2FC BBRRNA vs ControlRNA: 0.55
  L2FC BBRRNA vs BBRDNA: -1.17
  L2FC BBRDNA vs ControlDNA: -0.19
OTU 847728 (Ruminococcus 2)
  L2FC BBRRNA vs ControlRNA: -0.72
  L2FC BBRRNA vs BBRDNA: 1.54
  L2FC BBRDNA vs ControlDNA: -0.88
[7]
  L2FC BBRRNA vs ControlRNA: -1.26
  L2FC BBRRNA vs BBRDNA: 1.01
  L2FC BBRDNA vs ControlDNA: -1.67
OTU 1107057 (Anaerostipes)
  L2FC BBRRNA vs ControlRNA: -0.90
  L2FC BBRRNA vs BBRDNA: -2.55
  L2FC BBRDNA vs ControlDNA: -1.14
OTU 1132942 (Butyricicoccus)
  L2FC BBRRNA vs ControlRNA: 0.64
  L2FC BBRRNA vs BBRDNA: -3.15
  L2FC BBRDNA vs ControlDNA: 0.37
[8]
  L2FC BBRRNA vs ControlRNA: 2.76
  L2FC BBRRNA vs BBRDNA: -0.46
  L2FC BBRDNA vs ControlDNA: 1.22
[9]
  L2FC BBRRNA vs ControlRNA: 0.08
  L2FC BBRRNA vs BBRDNA: -1.72
  L2FC BBRDNA vs ControlDNA: 0.40
[10]
  L2FC BBRRNA vs ControlRNA: -2.19
  L2FC BBRRNA vs BBRDNA: -0.05
  L2FC BBRDNA vs ControlDNA: -1.03
[11]
  L2FC BBRRNA vs ControlRNA: -1.45
  L2FC BBRRNA vs BBRDNA: -0.84
  L2FC BBRDNA vs ControlDNA: -1.62
[12]
  L2FC BBRRNA vs ControlRNA: -1.27
  L2FC BBRRNA vs BBRDNA: -1.92
  L2FC BBRDNA vs ControlDNA: -0.42
[13]
  L2FC BBRRNA vs ControlRNA: -1.90
  L2FC BBRRNA vs BBRDNA: -0.75
  L2FC BBRDNA vs ControlDNA: -0.82
[14]
  L2FC BBRRNA vs ControlRNA: 0.42
  L2FC BBRRNA vs BBRDNA: 1.64
  L2FC BBRDNA vs ControlDNA: 0.55
[15]
  L2FC BBRRNA vs ControlRNA: -0.92
  L2FC BBRRNA vs BBRDNA: -0.91
  L2FC BBRDNA vs ControlDNA: -1.70
[16]
  L2FC BBRRNA vs ControlRNA: -0.22
  L2FC BBRRNA vs BBRDNA: 1.91
  L2FC BBRDNA vs ControlDNA: -0.81
[17]
  L2FC BBRRNA vs ControlRNA: -0.28
  L2FC BBRRNA vs BBRDNA: 1.69
  L2FC BBRDNA vs ControlDNA: -0.31
[18]
  L2FC BBRRNA vs ControlRNA: -1.01
  L2FC BBRRNA vs BBRDNA: 2.37
  L2FC BBRDNA vs ControlDNA: -1.00
[19]
  L2FC BBRRNA vs ControlRNA: 0.23
  L2FC BBRRNA vs BBRDNA: 1.73
  L2FC BBRDNA vs ControlDNA: 0.65
[20]
  L2FC BBRRNA vs ControlRNA: -0.55
  L2FC BBRRNA vs BBRDNA: 1.51
  L2FC BBRDNA vs ControlDNA: -0.78
[21]
  L2FC BBRRNA vs ControlRNA: -0.42
  L2FC BBRRNA vs BBRDNA: 1.67
  L2FC BBRDNA vs ControlDNA: -0.75
[22]
  L2FC BBRRNA vs ControlRNA: -0.10
  L2FC BBRRNA vs BBRDNA: -0.33
  L2FC BBRDNA vs ControlDNA: -2.01
[23]
  L2FC BBRRNA vs ControlRNA: 0.00
  L2FC BBRRNA vs BBRDNA: 2.70
  L2FC BBRDNA vs ControlDNA: 0.58
